Structures can show the parent of a compound that is named as a salt.

The first series has as its system rats. The experiment in a line: Morris water maze, reversal of scopolamine induced amnesia. Type of series: in vivo, rat. The conditions noted are these: p.o., dose giving reversal. On the procedure: The cognition-enhancing properties of compounds of this invention were estimated by using this model.
The water maze apparatus consisted of a circular pool (1.8 m diameter, 0.6 m high) constructed in black Perspex (TSE systems, Germany) filled with water (24±2° C.) and positioned underneath a wide-angled video camera to track animal. The 10 cm^2 perspex platform, lying 1 cm below the water surface, was placed in the centre of one of the four imaginary quadrants, which remained constant for all rats. The black Perspex used in the construction of the maze and platform offered no intramaze cues to guide escape behavior. By contrast, the training room offered several strong extramaze visual cues to aid the formation of the spatial map necessary for escape learning. An automated tracking system, [Videomot 2 (5.51), TSE systems, Germany] was employed. This program analyzes video images acquired via a digital camera and an image acquisition boards that determined path length, swim speed and the number of entries and duration of swim time spent in each quadrant of the water maze.
Regarding `O=C(CN1CCOCC1)N1CCc2nc(OC3CCN(C4CCC4)CC3)sc2C1.O=C(O)C(O)C(O)C(=O)O` [Example 12, 1-[2-(1-Cyclobutyl-piperidin-4-yloxy)-6,7-dihydro-4H-thiazolo[5,4-c]pyridin-5-yl]-2-morpholin-4-yl-ethanone tartrate], the “Reversal of Scopolamine Induced amnesia” value is on record as “≧20 mg/kg, p.o”.

Another series addresses Histamine H3 receptor (UniProt Q9Y5N1). The series is described as follows: Binding assay for human or rat histamine H3 receptor ([3H] R-α-methylhistamine). The conditions noted are these: [3H] R-α-methylhistamine 3.0 nM; rat brain frontal cortex or recombinant human receptor in CHO cells (not specified which). On the procedure:
Compounds can be evaluated according to the following procedures.
• Receptor source: Rat brain frontal cortex or recombinant human cDNA expressed in CHO cells • Radioligand: [^3H] R-α-methylhistamine • Final ligand concentration—[3.0 nM] • Non-specific determinant: R-α-methylhistamine (100 uM) • Reference compound: R-α-methylhistamine • Positive control: R-α-methylhistamine Incubation Conditions:
Increasing concentrations of test compounds or standard were incubated with membrane receptors and radioligand in 5 mM MgCl2 and 50 mM TRIS-HCl (pH 7.4) for 60 minutes at room temperature. The reaction was terminated by rapid vacuum filtration onto the glass fiber filters. Radioactivity trapped onto the filters was determined and compared to the control values in order to ascertain any interactions of the test compound(s) with either cloned human or rat receptor binding site.
With `O=C(C1CC1)N1CCc2nc(OC3CCC(C4CCC4)CC3)sc2CC1` (stereo not drawn) [Example 2, [2-(4-Cyclobutyl-cyclohexyloxy)-4,5,7,8-tetrahydro-thiazolo[5,4-d]azepin-6-yl]-cyclopropyl-methanone tartrate], the Ki (in general, the dissociation constant of the complex between target and ligand, obtained from inhibition or displacement) amounted to 2 nM. On the same count and under the same terms, the value for `CC(C)N1CCC(Oc2nc3c(s2)CN(C(=O)C2CC2)CC3)CC1` [Example 9, Cyclopropyl-[2-(1-isopropyl-piperidin-4-yloxy)-6,7-dihydro-4H-thiazolo[5,4-c]pyridin-5-yl]-methanone tartrate] was 9.94 nM.

For the compound `O=C(CN1CCCCC1)N1CCc2nc(OC3CCN(C4CCC4)CC3)sc2C1` [Example 18, 1-[2-(1-Cyclobutyl-piperidin-4-yloxy)-6,7-dihydro-4H-thiazolo[5,4-c]pyridin-5-yl]-2-piperidin-1-yl-ethanone tartrate], the Ki was determined as 6.96 nM. For the compound `O=C(CN1CCOCC1)N1CCc2nc(OC3CCN(C4CCC4)CC3)sc2C1.O=C(O)C(O)C(O)C(=O)O` [Example 12, 1-[2-(1-Cyclobutyl-piperidin-4-yloxy)-6,7-dihydro-4H-thiazolo[5,4-c]pyridin-5-yl]-2-morpholin-4-yl-ethanone tartrate], the Ki came to 8.44 nM.

As for `O=S(=O)(c1ccccc1F)N1CCc2nc(OC3CCN(C4CCC4)CC3)sc2C1` [Example 20, 2-(1-Cyclobutyl-piperidin-4-yloxy)-5-(2-fluoro-benzenesulfonyl)-,6,7-dihydro-4H-thiazolo[5,4-c]pyridine tartrate], the Ki was 7.4 nM. Still for that read-out and setting: the value for `NC(=O)c1ccc(N2CCc3nc(OC4CCN(C5CCC5)CC4)sc3C2)nc1` [Example 31, 6-[2-(1-Cyclobutyl-piperidin-4-yloxy)-6,7-dihydro-4H-thiazolo[5,4-c]pyridin-5-yl]-nicotinamide] was 1.62 nM; that for `CC(C)N1CCC(Oc2nc3c(s2)CCN(C(=O)C2CC2)CC3)CC1` [Example 34, Cyclopropyl-[2-(1-isopropyl-piperidin-4-yloxy)-4,5,7,8-tetrahydro-thiazolo[5,4-d]azepin-6-yl]-methanone tartrate] was 15.6 nM; that for `O=C(c1cccnc1)N1CCc2nc(OC3CCN(C4CCC4)CC3)sc2C1` [Example 26, [2-(1-Cyclobutyl-piperidin-4-yloxy)-6,7-dihydro-4H-thiazolo[5,4-c]pyridin-5-yl]-pyridin-3-yl-methanone tartrate] was 32.5 nM. On to `O=C(C1CCC1)N1CCc2nc(OC3CCN(C4CC4)CC3)sc2C1` [Example 11, Cyclobutyl-[2-(1-cyclopropyl-piperidin-4-yloxy)-6,7-dihydro-4H-thiazolo[5,4-c]pyridin-5-yl]-methanone tartrate], for which the inhibition constant Ki came out at 12 nM. Same read-out and setting: next, `CS(=O)(=O)N1CCc2nc(OC3CCN(C4CCC4)CC3)sc2C1` [Example 21, 2-(1-Cyclobutyl-piperidin-4-yloxy)-5-methanesulfonyl-,6,7-dihydro-4H-thiazolo[5,4-c]pyridine]: 22.6 nM; `O=C(N1CCOCC1)N1CCc2nc(OC3CCN(C4CCC4)CC3)sc2C1` [Example 29, [2-(1-Cyclobutyl-piperidin-4-yloxy)-6,7-dihydro-4H-thiazolo[5,4-c]pyridin-5-yl]-morpholin-4-yl-methanone tartrate]: 11.3 nM; `CC(C)CC(=O)N1CCc2nc(OC3CCN(C4CCC4)CC3)sc2C1` [Example 7, 1-[2-(1-Cyclobutyl-piperidin-4-yloxy)-6,7-dihydro-4H-thiazolo[5,4-c]pyridin-5-yl]-3-methyl-butan-1-one tartrate]: 10.5 nM. Turning to `FC(F)(F)c1ccc(N2CCc3nc(OC4CCN(C5CCC5)CC4)sc3C2)cn1` [Example 23, 2-(1-Cyclobutyl-piperidin-4-yloxy)-5-(2-trifluoromethyl-pyridin-5-yl)-,6,7-dihydro-4H-thiazolo[5,4-c]pyridine], the Ki was 0.3 nM. For the compound `O=C(C1CC1)N1CCCC(Oc2nc3c(s2)CN(C2CCC2)CC3)C1` (stereo not drawn) [Example 14, [3-(5-Cyclobutyl-,6,7-dihydro-4H-thiazolo[5,4-c]pyridin-2-yloxy)-piperidin-1-yl]-cyclopropyl-methanone tartrate], the Ki came out at 23.6 nM.

For `O=C(c1ccccc1F)N1CCc2nc(OC3CCN(C4CCC4)CC3)sc2C1` [Example 6, [2-(1-Cyclobutyl-piperidin-4-yloxy)-6,7-dihydro-4H-thiazolo[5,4-c]pyridin-5-yl]-(2-fluoro-phenyl)-methanone tartrate], the Ki is 13.4 nM. The same measure, in the same setting: the value for `COc1ccc(C(=O)N2CCc3nc(OC4CCN(C5CCC5)CC4)sc3C2)cc1` [Example 17, [2-(1-Cyclobutyl-piperidin-4-yloxy)-6,7-dihydro-4H-thiazolo[5,4-c]pyridin-5-yl]-(4-methoxy-phenyl)-methanone tartrate] was 21.2 nM; that for `O=C(C1CC1)N1CCc2nc(OC3CCN(C4CC4)CC3)sc2C1` [Example 10, Cyclopropyl-[2-(1-cyclopropyl-piperidin-4-yloxy)-6,7-dihydro-4H-thiazolo[5,4-c]pyridin-5-yl]-methanone tartrate] was 5.43 nM; that for `O=C(C1CC1)N1CCCc2nc(OC3CCN(C4CCC4)CC3)sc21` [Example 33, [2-(1-Cyclobutyl-piperidin-4-yloxy)-6,7-dihydro-5H-thiazolo[5,4-b]pyridin-4-yl]-cyclopropyl-methanone tartrate] was 15.4 nM. The same measure, in the same setting: next, `O=C(CC1CC1)N1CCc2nc(OC3CCN(C4CCC4)CC3)sc2C1` [Example 19, 1-[2-(1-Cyclobutyl-piperidin-4-yloxy)-6,7-dihydro-4H-thiazolo[5,4-c]pyridin-5-yl]-2-cyclopropyl-ethanone]: 12.3 nM; `O=C(C1CCCC1)N1CCc2nc(OC3CCN(C4CCC4)CC3)sc2C1` [Example 32, [2-(1-Cyclobutyl-piperidin-4-yloxy)-6,7-dihydro-4H-thiazolo[5,4-c]pyridin-5-yl]-cyclopentyl-methanone tartrate]: 4.6 nM. Same read-out and setting: the value for `CCC(=O)NC1CCc2nc(OC3CCN(C4CCC4)CC3)sc2C1` (stereo not drawn) [Example 3, N-[2-(1-Cyclobutyl-piperidin-4-yloxy)-4,5,6,7-tetrahydro-benzothiazol-6-yl]-propionamide] was 26.7 nM. Regarding `O=C(c1ccc(C(F)(F)F)nc1)N1CCc2nc(OC3CCN(C4CCC4)CC3)sc2C1` [Example 25, [2-(1-Cyclobutyl-piperidin-4-yloxy)-6,7-dihydro-4H-thiazolo[5,4-c]pyridin-5-yl]-(2-trifluoromethyl-pyridin-5-yl)-methanone], the Ki was 35.3 nM. With `c1cncc(N2CCc3nc(OC4CCN(C5CCC5)CC4)sc3C2)c1` [Example 27, 2-(1-Cyclobutyl-piperidin-4-yloxy)-5-pyridin-3-yl-,6,7-dihydro-4H-thiazolo[5,4-c]pyridine tartrate], the Ki turned out to be 0.75 nM. For `O=C(c1ccncc1)N1CCc2nc(OC3CCN(C4CCC4)CC3)sc2C1` [Example 16, [2-(1-Cyclobutyl-piperidin-4-yloxy)-6,7-dihydro-4H-thiazolo[5,4-c]pyridin-5-yl]-pyridin-4-yl-methanone tartrate], the Ki was determined as 33.5 nM. On the same count and under the same terms, the value for `O=C(N1CCCCC1)N1CCc2nc(OC3CCN(C4CCC4)CC3)sc2C1` [Example 30, [2-(1-Cyclobutyl-piperidin-4-yloxy)-6,7-dihydro-4H-thiazolo[5,4-c]pyridin-5-yl]-piperidin-1-yl-methanone hydrochloride] was 4.19 nM. Still for that read-out and setting: next, `CC(C)N1CCC(Oc2nc3c(s2)CN(C(=O)C2CCC2)CC3)CC1` [Example 8, Cyclobutyl-[2-(1-isopropyl-piperidin-4-yloxy)-6,7-dihydro-4H-thiazolo[5,4-c]pyridin-5-yl]-methanone]: 7.69 nM.

Test system in another series: not listed separately
The experiment in a line: Rodent pharmacokinetic study. The format is in vivo, Male Wistar rats. The conditions noted are these: whole blood; Wistar male rat, intravenous, 1 mg/kg, water, blood. On the procedure:
Male Wistar rats (230-280 grams) obtained from NIN (National Institute of Nutrition, Hyderabad, India) were used as an experimental animal. Three animals were housed in each cage. Animals were kept fasted over night and maintained on a 12 hours light/dark cycle. Three rats were dosed New chemical entity (NCE) orally (3 or 10 mg/kg) and intravenously (1 or 5 mg/kg) on day 0 and day 2.
At each time point blood was collected by jugular vein. Blood was stored at 2-8° C. until analysis. The concentrations of the NCE compound in blood were determined using LC-MS/MS method. Schedule time points: Pre dose 0.08, 0.25, 0.5, 1, 2, 4, 6, 8 and 24 hours after dosing (n=3). The NCE compounds were quantified in blood by partially validated LC-MS/MS method using acetonitrile precipitation technique. NCE compounds were quantified in the calibration range of 1-2000 ng/mL in blood. Study samples were analyzed using calibration samples in the batch and quality control samples spread across the batch.
Pharmacokinetic parameters were calculated by non-compartmental model using software WinNonlin version 5.0.1.
For `O=C(CN1CCOCC1)N1CCc2nc(OC3CCN(C4CCC4)CC3)sc2C1.O=C(O)C(O)C(O)C(=O)O` [Example 12, 1-[2-(1-Cyclobutyl-piperidin-4-yloxy)-6,7-dihydro-4H-thiazolo[5,4-c]pyridin-5-yl]-2-morpholin-4-yl-ethanone tartrate], the AUC(0-t) – broadly, exposure summed from dosing to a finite time, without extrapolation to infinity – amounted to 334 ± 39 ng·h/mL; the highest concentration (Cmax) – broadly, the highest concentration seen after dosing – is 237 ± 38 ng/mL; the Tmax (as a rule, the time from dosing to the highest level) came out at 0.08 h; the half-life (in general, the time in which the quantity being followed falls by half) is 2.86 ± 0.82 h.

Staying with this series, now noted: whole blood; Wistar male rat, per oral 3 mg/kg vs intravenous 1 mg/kg.
Turning to `O=C(CN1CCOCC1)N1CCc2nc(OC3CCN(C4CCC4)CC3)sc2C1.O=C(O)C(O)C(O)C(=O)O` [Example 12, 1-[2-(1-Cyclobutyl-piperidin-4-yloxy)-6,7-dihydro-4H-thiazolo[5,4-c]pyridin-5-yl]-2-morpholin-4-yl-ethanone tartrate], the bioavailability (in general, the share of a dose that reaches the circulation, judged against a reference dose that is usually intravenous) was 43 ± 17%.

The series is the same for the next values; noted with them: whole blood; Wistar male rat, per oral, 3 mg/kg, water, blood.
On to `O=C(CN1CCOCC1)N1CCc2nc(OC3CCN(C4CCC4)CC3)sc2C1.O=C(O)C(O)C(O)C(=O)O` [Example 12, 1-[2-(1-Cyclobutyl-piperidin-4-yloxy)-6,7-dihydro-4H-thiazolo[5,4-c]pyridin-5-yl]-2-morpholin-4-yl-ethanone tartrate], for which the AUC(0-t) stood at 417 ± 120 ng·h/mL, the Cmax turned out to be 151 ± 18 ng/mL, the time of peak concentration (Tmax) stood at 0.83 ± 0.29 h and the half-life is 2.85 ± 0.38 h.

Source of the values: patent US8912179B2, “Heterocyclyl compounds as histamine H3 receptor ligands” (Suven Life Sciences Limited, priority 2010, dated 2014).
